Measured values as given in US20260207623A1, “USE OF ESTETROL IN HEPATICALLY IMPAIRED PATIENTS” (ESTETRA SRL, priority 2022, published 2026).

Key:
Type in all cases: in vivo, human
[1] = system: post-menopausal women; assay: Example 3: menopause-specific Quality of Life (MENQOL) questionnaire; settings: compared to placebo treatment
[2] = system: triglycerides, glucose, cholesterol, HDL-cholesterol, LDL-cholesterol level; assay: Example 2 section F: lipid parameters and glucose level (triglycerides, glucose, cholesterol, HDL-cholesterol, LDL-cholesterol) at 15 mg and 20 mg daily doses
Experimental: In order to better assess the potential for increasing the daily dose beyond the minimum effective dose of 15 mg estetrol monohydrate daily, a number of parameters were followed in a study where estetrol monohydrate was administered at the increased dose of 20 mg per day.
1. Triglycerides Level (mmol/L)
2. Glucose Level (mmol/L)
3. Cholesterol Level (mmol/L)
4. HDL-Cholesterol Level (mmol/L)
5. LDL-Cholesterol Level (mmol/L)

[3] = system: healthy women; assay: Example 2 section G: adverse events after single and 14-day multiple oral doses of Estetrol monohydrate/Drospirenone 15 mg/3 mg and 30 mg/6 mg; settings: single dose then once daily for 14 days
Experimental: The following treatments were administered to healthy women (between 15-50 years inclusive) according to the randomization code. • Placebo (n=16); • Group 15 mg: a single oral dose of 15 mg Estetrol monohydrate/3 mg Drospirenone (n=10) followed, after a washout of 14 days, by multiple oral doses of 15 mg Estetrol monohydrate/3 mg Drospirenone (n=10) once daily for 14 days; • Group 30 mg: a single oral dose of 30 mg Estetrol monohydrate/6 mg Drospirenone (n=10), followed, after a washout of 14 days, by multiple oral doses of 30 mg Estetrol monohydrate/6 mg Drospirenone (n=10) once daily for 14 days.
Adverse events were recorded from first admission until completion of the follow-up visit (between 37 to 42 days after first day of treatment).

[4] = 15 mg Estetrol monohydrate/3 mg Drospirenone
[5] = 30 mg Estetrol monohydrate/6 mg Drospirenone

SMILES: C[C@]12CC[C@@H]3c4ccc(O)cc4CC[C@H]3[C@@H]1[C@@H](O)[C@@H](O)[C@@H]2O [E4 monohydrate, estetrol monohydrate]
- total MENQOL scores [1]: significantly improved
- Cholesterol level, Baseline, Mean ([2]; 15 mg daily): 5.51 mmol/L
- Cholesterol level, Baseline, Median ([2]; 15 mg daily): 5.62 mmol/L
- Glucose level, Baseline, Mean ([2]; 15 mg daily): 4.77 mmol/L
- Glucose level, Baseline, Median ([2]; 15 mg daily): 4.72 mmol/L
- HDL-Cholesterol level, Baseline, Mean ([2]; 15 mg daily): 1.73 mmol/L
- HDL-Cholesterol level, Baseline, Median ([2]; 15 mg daily): 1.66 mmol/L
- LDL-Cholesterol level, Baseline, Mean ([2]; 15 mg daily): 3.05 mmol/L
- LDL-Cholesterol level, Baseline, Median ([2]; 15 mg daily): 3.22 mmol/L
- Triglycerides level, Baseline, Mean ([2]; 15 mg daily): 1.32 mmol/L
- Triglycerides level, Baseline, Median ([2]; 15 mg daily): 1.21 mmol/L
- Cholesterol level, End Of Treatment Actual Change from Baseline, Mean ([2]; 15 mg daily, after 12 weeks): 0.12 mmol/L
- Cholesterol level, End Of Treatment Actual Change from Baseline, Median ([2]; 15 mg daily, after 12 weeks): 0.08 mmol/L
- Cholesterol level, End Of Treatment Actual Value, Mean ([2]; 15 mg daily, after 12 weeks): 5.63 mmol/L
- Cholesterol level, End Of Treatment Actual Value, Median ([2]; 15 mg daily, after 12 weeks): 5.71 mmol/L
- Glucose level, End Of Treatment Actual Change from Baseline, Mean ([2]; 15 mg daily, after 12 weeks): 0.02 mmol/L
- Glucose level, End Of Treatment Actual Change from Baseline, Median ([2]; 15 mg daily, after 12 weeks): 0.05 mmol/L
- Glucose level, End Of Treatment Actual Value, Mean ([2]; 15 mg daily, after 12 weeks): 4.79 mmol/L
- Glucose level, End Of Treatment Actual Value, Median ([2]; 15 mg daily, after 12 weeks): 4.77 mmol/L
- HDL-Cholesterol level, End Of Treatment Actual Change from Baseline, Mean ([2]; 15 mg daily, after 12 weeks): 0.16 mmol/L
- HDL-Cholesterol level, End Of Treatment Actual Change from Baseline, Median ([2]; 15 mg daily, after 12 weeks): 0.17 mmol/L
- HDL-Cholesterol level, End Of Treatment Actual Value, Mean ([2]; 15 mg daily, after 12 weeks): 1.89 mmol/L
- HDL-Cholesterol level, End Of Treatment Actual Value, Median ([2]; 15 mg daily, after 12 weeks): 1.81 mmol/L
- LDL-Cholesterol level, End Of Treatment Actual Change from Baseline, Mean ([2]; 15 mg daily, after 12 weeks): 0.09 mmol/L
- LDL-Cholesterol level, End Of Treatment Actual Change from Baseline, Median ([2]; 15 mg daily, after 12 weeks): 0.10 mmol/L
- LDL-Cholesterol level, End Of Treatment Actual Value, Mean ([2]; 15 mg daily, after 12 weeks): 3.14 mmol/L
- LDL-Cholesterol level, End Of Treatment Actual Value, Median ([2]; 15 mg daily, after 12 weeks): 3.25 mmol/L
- Triglycerides level, End Of Treatment Actual Change from Baseline, Mean ([2]; 15 mg daily, after 12 weeks): 0.20 mmol/L
- Triglycerides level, End Of Treatment Actual Change from Baseline, Median ([2]; 15 mg daily, after 12 weeks): 0.15 mmol/L
- Triglycerides level, End Of Treatment Actual Value, Mean ([2]; 15 mg daily, after 12 weeks): 1.61 mmol/L
- Triglycerides level, End Of Treatment Actual Value, Median ([2]; 15 mg daily, after 12 weeks): 1.40 mmol/L
- Cholesterol level, Baseline, Mean ([2]; 20 mg daily): 6.27 mmol/L
- Cholesterol level, Baseline, Median ([2]; 20 mg daily): 6.25 mmol/L
- Glucose level, Baseline, Mean ([2]; 20 mg daily): 5.53 mmol/L
- Glucose level, Baseline, Median ([2]; 20 mg daily): 5.60 mmol/L
- HDL-Cholesterol level, Baseline, Mean ([2]; 20 mg daily): 1.68 mmol/L
- HDL-Cholesterol level, Baseline, Median ([2]; 20 mg daily): 1.60 mmol/L
- LDL-Cholesterol level, Baseline, Mean ([2]; 20 mg daily): 3.94 mmol/L
- LDL-Cholesterol level, Baseline, Median ([2]; 20 mg daily): 4.00 mmol/L
- Triglycerides level, Baseline, Mean ([2]; 20 mg daily): 1.43 mmol/L
- Triglycerides level, Baseline, Median ([2]; 20 mg daily): 1.40 mmol/L
- lipid parameters and glucose level ([2]; 20 mg daily dose in place of 15 mg daily dose): do not behave significantly differently
- Cholesterol level, End Of Treatment Actual Change from Baseline, Mean ([2]; 20 mg daily, after 28 days): -0.18 mmol/L
- Cholesterol level, End Of Treatment Actual Change from Baseline, Median ([2]; 20 mg daily, after 28 days): -0.20 mmol/L
- Cholesterol level, End Of Treatment Actual Value, Mean ([2]; 20 mg daily, after 28 days): 6.09 mmol/L
- Cholesterol level, End Of Treatment Actual Value, Median ([2]; 20 mg daily, after 28 days): 6.10 mmol/L
- Glucose level, End Of Treatment Actual Change from Baseline, Mean ([2]; 20 mg daily, after 28 days): -0.10 mmol/L
- Glucose level, End Of Treatment Actual Change from Baseline, Median ([2]; 20 mg daily, after 28 days): -0.15 mmol/L
- Glucose level, End Of Treatment Actual Value, Mean ([2]; 20 mg daily, after 28 days): 5.44 mmol/L
- Glucose level, End Of Treatment Actual Value, Median ([2]; 20 mg daily, after 28 days): 5.60 mmol/L
- HDL-Cholesterol level, End Of Treatment Actual Change from Baseline, Mean ([2]; 20 mg daily, after 28 days): 0.29 mmol/L
- HDL-Cholesterol level, End Of Treatment Actual Change from Baseline, Median ([2]; 20 mg daily, after 28 days): 0.35 mmol/L
- HDL-Cholesterol level, End Of Treatment Actual Value, Mean ([2]; 20 mg daily, after 28 days): 1.97 mmol/L
- HDL-Cholesterol level, End Of Treatment Actual Value, Median ([2]; 20 mg daily, after 28 days): 1.90 mmol/L
- LDL-Cholesterol level, End Of Treatment Actual Change from Baseline, Mean ([2]; 20 mg daily, after 28 days): -0.51 mmol/L
- LDL-Cholesterol level, End Of Treatment Actual Change from Baseline, Median ([2]; 20 mg daily, after 28 days): -0.65 mmol/L
- LDL-Cholesterol level, End Of Treatment Actual Value, Mean ([2]; 20 mg daily, after 28 days): 3.43 mmol/L
- LDL-Cholesterol level, End Of Treatment Actual Value, Median ([2]; 20 mg daily, after 28 days): 3.45 mmol/L
- Triglycerides level, End Of Treatment Actual Change from Baseline, Mean ([2]; 20 mg daily, after 28 days): 0.10 mmol/L
- Triglycerides level, End Of Treatment Actual Change from Baseline, Median ([2]; 20 mg daily, after 28 days): 0.10 mmol/L
- Triglycerides level, End Of Treatment Actual Value, Mean ([2]; 20 mg daily, after 28 days): 1.53 mmol/L
- Triglycerides level, End Of Treatment Actual Value, Median ([2]; 20 mg daily, after 28 days): 1.40 mmol/L
- TEAEs by relationship to study drug, Related, subjects reporting one or more AE [3, 4]: 50%
- TEAEs by relationship to study drug, Total, subjects reporting one or more AE [3, 4]: 80%
- TEAEs by relationship to study drug, Unrelated, subjects reporting one or more AE [3, 4]: 50%
- TEAEs by relationship to study drug, Related, subjects reporting one or more AE [3, 5]: 50%
- TEAEs by relationship to study drug, Total, subjects reporting one or more AE [3, 5]: 70%
- TEAEs by relationship to study drug, Unrelated, subjects reporting one or more AE [3, 5]: 50%
